Test system: 855422-203-R-J1-PDC complex spheroid viability
Test: Anticancer human tumor 855422-203-R-J1-PDC patient-derived bladder carcinoma cell line growth inhibition [POLQ]
Conditions: for IC50: curve of first compound; for viability, T/C: stronger effect = lower value
How it was run: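 Patient-derived tumour cells were co-cultured with HUVEC and mesenchymal stem cells as multicellular spheroids at 37 °C. They were treated with POLQ inhibitors (novobiocin, ART-558, RP6685) alone or combined with other agents. Top concentrations were at or near clinical Cmax (otherwise 10 microM; SN-38 at 1 microM), decreasing in half-log steps.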

[1] = second compound 0.0316 µM, first compound 0.0316 µM
[2] = second compound 0.0316 µM, first compound 0.1 µM
[3] = second compound 0.0316 µM, first compound 0.316 µM
[4] = second compound 0.0316 µM, first compound 1 µM
[5] = second compound 0.0316 µM, first compound 3.16 µM
[6] = second compound 0.0316 µM, first compound 10 µM
[7] = second compound 0.1 µM, first compound 0.0316 µM
[8] = second compound 0.1 µM, first compound 0.1 µM
[9] = second compound 0.1 µM, first compound 0.316 µM
[10] = second compound 0.1 µM, first compound 1 µM
[11] = second compound 0.1 µM, first compound 3.16 µM
[12] = second compound 0.1 µM, first compound 10 µM
[13] = second compound 0.316 µM, first compound 0.0316 µM
[14] = second compound 0.316 µM, first compound 0.1 µM
[15] = second compound 0.316 µM, first compound 0.316 µM
[16] = second compound 0.316 µM, first compound 1 µM
[17] = second compound 0.316 µM, first compound 3.16 µM
[18] = second compound 0.316 µM, first compound 10 µM
[19] = second compound 1 µM, first compound 0.0316 µM
[20] = second compound 1 µM, first compound 0.1 µM
[21] = second compound 1 µM, first compound 0.316 µM
[22] = second compound 1 µM, first compound 1 µM
[23] = second compound 1 µM, first compound 3.16 µM
[24] = second compound 1 µM, first compound 10 µM
[25] = second compound 3.16 µM, first compound 0.0316 µM
[26] = second compound 3.16 µM, first compound 0.1 µM
[27] = second compound 3.16 µM, first compound 0.316 µM
[28] = second compound 3.16 µM, first compound 1 µM
[29] = second compound 3.16 µM, first compound 3.16 µM
[30] = second compound 3.16 µM, first compound 10 µM
[31] = second compound 10 µM, first compound 0.0316 µM
[32] = second compound 10 µM, first compound 0.1 µM
[33] = second compound 10 µM, first compound 0.316 µM
[34] = second compound 10 µM, first compound 1 µM
[35] = second compound 10 µM, first compound 3.16 µM
[36] = second compound 10 µM, first compound 10 µM
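Further: spheroids exposed to compounds for seven days before readout.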

Work on `CCc1cc2c(N3CCc4c(cc(Cn5ccnc5)cc4-c4cn(C)nc4C(F)(F)F)C3=O)cc(C)nc2c(OC)n1` + Nc1ccc(C#CCN(C(=O)Cc2ncc(C(F)(F)F)cc2C(F)(F)F)c2ccc(F)cc2)nn1 yielded an IC50 (second compound 0.0316 µM) of 6 µM, an IC50 (second compound 0.1 µM) of 5.3 µM and an IC50 (second compound 0.316 µM) of 5.49 µM. The IC50 (second compound 1 µM) was 6.4 µM, the IC50 (second compound 3.16 µM) was 5.25 µM and the IC50 (second compound 10 µM) was 3.47 µM. It also gave a viability, T/C [1] of 133%, a viability, T/C [2] of 120% and a viability, T/C [3] of 119%. The viability, T/C [4] was 93.5%, the viability, T/C [5] was 66.3% and the viability, T/C [6] was 37.1%. For the same compound, the viability, T/C [7] was 131%, the viability, T/C [8] was 138% and the viability, T/C [9] was 127%. It also gave a viability, T/C [10] of 96%, a viability, T/C [11] of 63.5% and a viability, T/C [12] of 35.5%. The viability, T/C [13] was 114%, the viability, T/C [14] was 138% and the viability, T/C [15] was 108%. The viability, T/C [16] was 95.8%, the viability, T/C [17] was 61.5% and the viability, T/C [18] was 37.4%. For the same compound, the viability, T/C [19] was 111%, the viability, T/C [20] was 121% and the viability, T/C [21] was 111%. The viability, T/C [22] was 92.2%, the viability, T/C [23] was 71.5% and the viability, T/C [24] was 37.1%. It also gave a viability, T/C [25] of 110%, a viability, T/C [26] of 118% and a viability, T/C [27] of 133%. It also gave a viability, T/C [28] of 92.5%, a viability, T/C [29] of 61.2% and a viability, T/C [30] of 38.6%. It also gave a viability, T/C [31] of 116%, a viability, T/C [32] of 115% and a viability, T/C [33] of 98%. For the same compound, the viability, T/C [34] was 77.4%, the viability, T/C [35] was 52.2% and the viability, T/C [36] was 31.7%.
`CCc1cc2c(N3CCc4c(cc(Cn5ccnc5)cc4-c4cn(C)nc4C(F)(F)F)C3=O)ccnc2c(OC)n1` + Nc1ccc(C#CCN(C(=O)Cc2ncc(C(F)(F)F)cc2C(F)(F)F)c2ccc(F)cc2)nn1 showed an IC50 (second compound 0.0316 µM) of 9.24 µM, an IC50 (second compound 0.1 µM) of 9.09 µM and an IC50 (second compound 0.316 µM) of 6.82 µM. For the same compound, the IC50 (second compound 1 µM) was 8.55 µM, the IC50 (second compound 3.16 µM) was 7.63 µM and the IC50 (second compound 10 µM) was 6.77 µM. It also gave a viability, T/C [1] of 107%, a viability, T/C [2] of 142% and a viability, T/C [3] of 133%. It also gave a viability, T/C [4] of 93.7%, a viability, T/C [5] of 87% and a viability, T/C [6] of 46.4%. The viability, T/C [7] was 125%, the viability, T/C [8] was 142% and the viability, T/C [9] was 130%. For the same compound, the viability, T/C [10] was 93.1%, the viability, T/C [11] was 76.3% and the viability, T/C [12] was 45.8%. It also gave a viability, T/C [13] of 136%, a viability, T/C [14] of 147% and a viability, T/C [15] of 133%. The viability, T/C [16] was 88.1%, the viability, T/C [17] was 72.6% and the viability, T/C [18] was 39.4%. For the same compound, the viability, T/C [19] was 98.1%, the viability, T/C [20] was 121% and the viability, T/C [21] was 109%. For the same compound, the viability, T/C [22] was 115%, the viability, T/C [23] was 72.2% and the viability, T/C [24] was 46.5%. It also gave a viability, T/C [25] of 148%, a viability, T/C [26] of 131% and a viability, T/C [27] of 125%. It also gave a viability, T/C [28] of 124%, a viability, T/C [29] of 72.6% and a viability, T/C [30] of 43.1%. It also gave a viability, T/C [31] of 98.9%, a viability, T/C [32] of 122% and a viability, T/C [33] of 112%. For the same compound, the viability, T/C [34] was 111%, the viability, T/C [35] was 72.6% and the viability, T/C [36] was 38.5%.

Reference: PubChem BioAssay AID1963838 (Molecular Pharmacology Branch, DTP, NCI, 2024)
